Source: patent publication US20090324691A1, “METHODS AND OPHTHALMIC DEVICES USED IN THE TREATMENT OF OCULAR ALLERGIES” (priority 2008, published 2009)
Structures can show the parent of a compound that is named as a salt.

Legend:
[1] = concentrations higher than 0.025% (0.25 mg/mL), topical solution; cited from earlier work
[2] = Uptake of ketotifen fumarate to an ophthalmic device over time (FIG. 1); assay type: physicochemical; settings: 3.0 mL of 43 ug/mL ketotifen fumarate packing solution per lens
Procedure: FIG. 1 illustrates the uptake of ketotifen fumarate to an ophthalmic device over time.
Three lots of 1-Day Acuvue® Brand Contact Lenses (etafilcon A) were cured and hydrated with deionized water. These lenses were inserted into glass vials containing 3.0 mL of a 43 ug/mL ketotifen fumarate packing solution per lens (packing solution formulation: borate buffered saline containing 0.83% sodium chloride, 0.9% boric acid, 100 ug/mL of dicalcium DTPA, and 0.1% sodium borate decahydrate ). The soaked and harvested at 5, 15, 30, 90 and 180 minutes and extracted and assayed as in Example 1 to determine the amount of ketotifen per treated lens. This graph illustrates that a minimum effective amount of in an etafilcon A contact lens is attained within 15 minutes of treatment.

time of treatment to attain a minimum effective amount in an etafilcon A contact lens [2]: ≤ 15 min
Structure (SMILES): CN1CCC(=C2c3ccccc3CC(=O)c3sccc32)CC1 [ketotifen fumarate]
ocular tolerability of higher concentrations [1]: sting and burn upon initial administration to the eye
